Laboratory results taken from PMC6068142, “Biochemical and structural characterization of a mannose binding jacalin-related lectin with two-sugar binding sites from pineapple (Ananas comosus) stem” (Scientific Reports, 2018).
In brackets after ≈: the same amount, converted by molar mass. Where two headings read alike, the source gives them in different places.

T1: AcmJRL (Ananas comosus, UniProt Q53J09)
T1 construct: native, purified from pineapple stem (D-mannose-Agarose, Superdex 75); initiator Met absent; N-terminus SGLVGLG; residues 2-145; not glycosylated; homodimer in solution, tetramer in crystal
T1 sequence (Q53J09 2-145): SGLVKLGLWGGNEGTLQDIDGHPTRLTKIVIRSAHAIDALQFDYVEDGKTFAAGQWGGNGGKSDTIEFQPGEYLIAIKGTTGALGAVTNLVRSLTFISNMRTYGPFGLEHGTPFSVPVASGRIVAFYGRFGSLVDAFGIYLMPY


Columns and labels:
AcmJRL [1] = biological target: T2, AcmJRL (Ananas comosus, UniProt Q53J09); assay: inhibition of rat erythrocyte hemagglutination; assay type: cell-based; conditions: AcmJRL 62.5 µg/mL; two-fold serial dilution of sugar
T2 construct: native, purified from pineapple stem (D-mannose-Agarose, Superdex 75); initiator Met absent; N-terminus SGLVGLG; residues 2-145; not glycosylated; homodimer in solution, tetramer in crystal

AcmJRL [2] = biological target: T2, AcmJRL; assay: isothermal titration calorimetry; assay type: binding; conditions: for Ka (M^-1): Tris-HCl 50 mM, 150 mM NaCl, pH 7.4, 25 °C, fit with fixed n = 2 equivalent sites
From the text: isothermal titration calorimetry on AcmJRL

AcmJRL [3] = biological target: T1, AcmJRL; set-up: inhibition of lectin-induced rat erythrocyte hemagglutination, two-fold serial dilution, lowest saccharide concentration visibly decreasing agglutination; conditions: minimum concentration inhibiting hemagglutination of rat erythrocytes; inhibitor
Description: Hemagglutinating activity was performed in microtiter plates with V-bottom wells, using the two-fold serial dilution method, starting with a concentration of 1 mg/mL (65 µM) lectin in phosphate-buffered saline containing 150 mM NaCl. Rabbit, sheep and rat erythrocytes were washed six times with 150 mM NaCl and resuspended at a final concentration of 3% (v/v) in 150 mM NaCl. Twenty-five µL of lectin solution were mixed with 25 µL of 3% erythrocytes, serially diluted and incubated at room temperature and 37 °C for 1 h. Hemagglutination activity was also assayed in the presence of 50 mM of the divalent ions Mg^2+, Mn^2+ Zn^2+ and Ca^2+. In this case, Tris-HCl 50 mM buffer at pH 7.2 containing 150 mM NaCl was used to avoid precipitation of phosphate compounds. The hemagglutination activity was given as a titer (the reciprocal of the highest two-fold dilution) or expressed as the minimum protein concentration (μg/mL), which produced visible hemagglutination and denoted as Hemagglutinating Unit (HU). Specific activity was defined as the HU per milligram of protein. The carbohydrate-binding specificity was determined by the inhibition of hemagglutination of rat erythrocytes, that were only the hemagglutinated ones, with starting concentrations of 100 mM for D-mannose, methyl-α-D-mannopyranoside and methyl-α-D-glucopyranoside, 50 mM for D-glucose and N-acetyl-D-glucosamine, 15 mM for Manα1,3Man and Manα1,3(Manα1,6)Man and 10 mM for Manα1,3Manα1,6(Manα1,6)Manα1,3. The different saccharides were serially diluted from the starting concentrations. After addition of 25 µL of A. comosus lectin (187.5 µg/mL) to all microplate wells, 25 µL of each saccharide were mixed separately in the first microtiter plate well followed by two-fold serial dilution and pre-incubated at room temperature for 1 h. Then 25 µL of 3% […] erythrocyte suspension were added to each well and the hemagglutination activity was evaluated after a further 1 h incubation period at room temperature and 37 °C. […] These are, e.g., the lectins from Phlebodium aureum rhizomes and Centrolobium microchaete seeds and heltuba[19],[47],[52].

[4] = biological target: the molecule itself; assay: SEC; FPLC gel filtration on Superdex 75 of affinity-purified AcmJRL; 0.15 mM protein; estimated native mass ~30 kDa
[5] = biological target: the molecule itself; assay: crystal structure; hanging drop vapor diffusion at 20 °C, protein at 17 mg/mL (1.1 mM); apo form (1.8 Å) and crystals soaked with D-mannose (2.75 Å) or methyl-α-D-mannopyranoside (1.9 Å)

Molecule	Ka (M^-1) (AcmJRL [2])	MIC (AcmJRL [3]) [µM]	further results
CO[C@H]1O[C@H](CO)[C@@H](O)[C@H](O)[C@@H]1O [methyl-α-D-mannopyranoside]			MIC (AcmJRL [1]): 1560 µM (≈ 303 µg/mL)
OC[C@H]1O[C@H](OC[C@H]2O[C@H](OC[C@H]3OC(O)[C@@H](O)[C@@H](O[C@H]4O[C@H](CO)[C@@H](O)[C@H](O)[C@@H]4O)[C@@H]3O)[C@@H](O)[C@@H](O[C@H]3O[C@H](CO)[C@@H](O)[C@H](O)[C@@H]3O)[C@@H]2O)[C@@H](O)[C@@H](O)[C@@H]1O (stereo partly shown) [Mannopentaose]	1694 ± 679	320 (≈ 265 µg/mL)	
OC[C@H]1O[C@H](OC[C@H]2OC(O)[C@@H](O)[C@@H](O[C@H]3O[C@H](CO)[C@@H](O)[C@H](O)[C@@H]3O)[C@@H]2O)[C@@H](O)[C@@H](O)[C@@H]1O (stereo partly shown) [Mannotriose]	734 ± 117	470 (≈ 237 µg/mL)	
OC[C@H]1OC(O)[C@H](O)[C@@H](O)[C@@H]1O (stereo partly drawn) [D-Glucose]	83 ± 3	3120 (≈ 562 µg/mL)	
CO[C@H]1O[C@H](CO)[C@@H](O)[C@H](O)[C@H]1O [methyl-α-D-glucopyranoside]			MIC (AcmJRL [1]): 1560 µM (≈ 303 µg/mL)
CC(=O)N[C@H]1C(O)O[C@H](CO)[C@@H](O)[C@@H]1O (stereo partly shown) [GlcNAc]	88 ± 1	3120 (≈ 690 µg/mL)	
OC[C@H]1O[C@H](O[C@H]2[C@H](O)[C@@H](CO)OC(O)[C@H]2O)[C@@H](O)[C@@H](O)[C@@H]1O (stereo partly shown) [Manα1,3Man]	421 ± 52	940 (≈ 322 µg/mL)	
OC[C@H]1OC(O)[C@@H](O)[C@@H](O)[C@@H]1O (stereo partly drawn) [D-Mannose]		6250 (≈ 1130 µg/mL)	Kd (AcmJRL [2]; read-out: Ka (M^-1) (converted)): 5.62 mM
Ananas comosus mannose jacalin-related lectin (AcmJRL) (natural protein, UniProt Q53J09 2-145, looked up, jacalin-like lectin from Ananas comosus (pineapple) stem, SwissProt entry Q53J09_ANACO; each monomer in the crystal runs from Ser2 to Tyr145; not glycosylated; Homodimer in solution by size-exclusion chromatography (0.15 mM); tetramer in the crystal (1.1 mM); Purification methods are in the Supplementary Materials and Methods; also called A. comosus lectin; jacalin-like lectin from A. comosus) SGLVKLGLWGGNEGTLQDIDGHPTRLTKIVIRSAHAIDALQFDYVEDGKTFAAGQWGGNGGKSDTIEFQPGEYLIAIKGTTGALGAVTNLVRSLTFISNMRTYGPFGLEHGTPFSVPVASGRIVAFYGRFGSLVDAFGIYLMPY			stoichiometry N [4]: 2; stoichiometry N [5]: 4
